# Assays:
# Type in all cases: biochemical
# [1] = biological target: T1, full length active recombinant SYK enzyme (Homo sapiens, UniProt P43405); test: SYK tyrosine phosphorylation activity, LANCE TR-FRET kinase assay; settings: 1 nM SYK, 100 μM ATP, 1 hour at room temperature
# T1 construct: full length active recombinant SYK enzyme (Millipore, CA); purchased Millipore
# Experimental: Potency of candidate molecules for inhibiting Syk tyrosine phosphorylation activity is assessed by measuring the ability of a test compound to inhibit Syk-mediated tyrosine phosphorylation of a Syk-specific substrate.
# SYK tyrosine phosphorylation activity is measured using the LANCE™ Technology developed by Perkin Elmer Life and Analytical Sciences (Boston, Mass.). LANCE™ refers to homogeneous time resolved fluorometry applications using techniques such as time-resolved fluorescence resonance energy transfer assay (TR-FRET) (see generally for procedures in Perkin Elmer Application Note—How to Optimize a Tyrosine Kinase Assay Using Time Resolved Fluorescence-Based LANCE Detection, wwww.perkinelmer.com/lifesciences). The assay principle involves detection of a phosphorylated substrate using energy transfer from a phosphospecific europium-labeled antibody to streptavidin-allophycocyanin as an acceptor.
# To test the ability of candidate molecules to inhibit SYK tyrosine phosphorylation activity, molecules are reconstituted in 30% DMSO and serially diluted 1:3 with the final dilution containing DMSO in the absence of the candidate molecule. The final DMSO concentration in the assay is 3%. Kinase assays are performed as a two part reaction. The first reaction is a kinase reaction that comprises a candidate molecule, full length active recombinant SYK enzyme (Millipore, CA) and biotin-labeled SYK-specific substrate biotin-[…]-OH. The second reaction involves termination of the kinase reaction and the simultaneous addition of the detection reagents-europium-labeled anti-phosphotyrosine reagent (Eu-W1024-PY100, Perkin Elmer, Boston, Mass.) and Streptavidin-Allophycocyanin detection reagent (SA-APC, Prozyme, CA). The kinase reaction is performed in a black U-bottom 96-well microtitre plate. The final reaction volume is 50 μL and contains a final concentration of 1 nM active SYK enzyme, 550 nM SYK-substrate, and 100 μM ATP diluted in a buffer containing 50 mM Tris pH 7.5, 5 mM MgCl2, and 1 mM DTT. The reaction is allowed to proceed for 1 hour at room temperature. The stop buffer contains 100 mM Tris pH 7.5, 300 mM NaCl2, 20 mM EDTA, 0.02% Brij35, and 0.5% BSA. The detection reagents are added to the reaction mixture at the following dilutions—1:500 for Eu-W1024-PY100 and 1:250 for SA-APC. The kinase reaction is terminated by the addition of 50 μL stop buffer containing the detection reagents. The detection is allowed to proceed for 1 hr at room temperature. Detection of the phosphorolated substrate in the absence and presence of inhibitors is measured in the TR-FRET instrument, Analyst HT (Molecular Probes, Sunnyvale, Calif.) and the condition for measurements are set up using CriterionHost Release 2.0 (Molecular Probes, Sunnyvale, Calif.). The settings used are a follows: excitation 360 nm, emission 665-7.5 nm, beam splitter 350 nm 50/50, flash 100 pulses, delay 60 us, integration 400 us, z-height 2 mm. Inhibition of SYK-tyrosine kinase activity is calculated as the maximum response observed in the presence of inhibitor, compared to that in the absence of inhibitor. IC50s are derived by non-linear regression analysis.
# JAK1 = biological target: T2, JAK1 (Homo sapiens, UniProt P23458); test: JAK tyrosine phosphorylation activity, Z'-LYTE FRET kinase assay; settings: catalytic domain recombinant kinase, Tyr6 peptide
# T2 construct: 5 μl of catalytic domain recombinant Kinase enzyme+Tyr peptide substrate (Invitrogen, CA); purchased Invitrogen
# T2 sequence (P23458 875-1153 limits assumed): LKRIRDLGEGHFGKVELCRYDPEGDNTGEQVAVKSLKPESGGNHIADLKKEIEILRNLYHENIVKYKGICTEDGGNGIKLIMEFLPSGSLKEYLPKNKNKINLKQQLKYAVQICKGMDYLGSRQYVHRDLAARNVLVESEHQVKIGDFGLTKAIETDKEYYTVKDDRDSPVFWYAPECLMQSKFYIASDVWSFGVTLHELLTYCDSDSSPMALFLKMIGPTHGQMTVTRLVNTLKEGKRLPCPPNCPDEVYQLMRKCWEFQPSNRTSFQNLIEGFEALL
# Experimental: (§1) JAK and SYK tyrosine phosphorylation activity is measured using the Z'-LYTE™ Technology developed by Invitrogen Corporation (Carlsbad, Calif.). For JAK1, JAK2 and JAK3 the Z'-LYTE™ Kinase Assay Kit-Tyr6 Peptide (part number PV4122) was used. The Z'-LYTE™ biochemical assay employs a fluorescence resonance energy transfer (FRET) coupled-enzyme format and is based on the differential sensitivity of phosphorylated and non-phosphorylated peptides to proteolitic cleavage. The assay uses a synthetic peptide substrate that is labelled with a donor fluorophore (coumarin) and an acceptor fluorophore (fluorescein) that make up a FRET pair. In the primary reaction (the Kinase Reaction), the kinase transfers the γ-phosphate of ATP to a single tyrosine residue on the substrate, while the presence of a kinase inhibitor in the primary reaction suppresses phosphorylation. In the secondary reaction (the Development Reaction), a site-specific protease (the Development Reagent) is added. The development buffer quenches the Kinase Reaction, while the protease recognizes and cleaves non-phosphorylated Z'-LYTE™ peptide substrate. Cleavage disrupts FRET between the donor and acceptor fluorophores on the non-phosphorylated substrate, while uncleaved, phosphorylated substrate maintains FRET.
# (§2) To test the ability of candidate molecules to inhibit JAK tyrosine phosphorylation activity, molecules are reconstituted in 100% DMSO and serially diluted 1:10 in polypropylene v-bottom microtiter plates. The candidate molecules are then diluted 1:25 into kinase buffer and 2.5 μl transferred into duplicate wells of a 384 well low volume black microtiter assay plate (Corning, USA). The final DMSO concentration in the assay is 1%. The kinase reaction contains 2.5 μl of a candidate molecule, 5 μl of catalytic domain recombinant Kinase enzyme+Tyr peptide substrate (Invitrogen, CA) and 2.5 μl ATP (Invitrogen, CA). The kinase reaction is allowed to precede for 1 hour at room temperature. The protease reaction is initiated by the addition of 5 μl Development Reagent (Invitrogen, CA). After 1 hour incubation at room temperature the fluorescence is measured using a FlexStation plate reader (Molecular Devices, Sunnyvale, Calif.). The reader settings used are as follows: Fluorescence mode, endpoint, top read, excitation 400 nm, emission 445 nm and 520 nm. Auto Cutoff 435 nm and 515 nm, PMT sensitivity high, 6 reads per well. Inhibition of JAK activity is calculated as the percent phosphorylation of substrate in the presence of inhibitor compared to the percent phosphorylation of substrate in the absence of inhibitor. IC50's were derived using Xlfit 4.3 (IDBS, UK), 4 parameter logistic model 205: Y=(A+((B−A)/(1+((C/x)^D)))).
# JAK2 = biological target: T3, JAK2 (Homo sapiens, UniProt O60674); test: as above; settings: catalytic domain recombinant kinase, Tyr6 peptide
# T3 construct: 5 μl of catalytic domain recombinant Kinase enzyme+Tyr peptide substrate (Invitrogen, CA); purchased Invitrogen
# T3 sequence (O60674 849-1124 limits assumed): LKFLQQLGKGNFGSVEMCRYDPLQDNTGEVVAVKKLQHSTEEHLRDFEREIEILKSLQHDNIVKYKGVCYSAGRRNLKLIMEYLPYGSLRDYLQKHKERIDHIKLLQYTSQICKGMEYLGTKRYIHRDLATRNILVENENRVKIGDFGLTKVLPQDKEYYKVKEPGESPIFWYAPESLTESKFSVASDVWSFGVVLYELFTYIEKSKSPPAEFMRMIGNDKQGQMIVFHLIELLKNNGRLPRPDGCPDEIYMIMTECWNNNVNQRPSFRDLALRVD
# Experimental: as §1, §2
# JAK3 = biological target: T4, JAK3 (Homo sapiens, UniProt P52333); test: as above; settings: catalytic domain recombinant kinase, Tyr6 peptide
# T4 construct: 5 μl of catalytic domain recombinant Kinase enzyme+Tyr peptide substrate (Invitrogen, CA); purchased Invitrogen
# T4 sequence (P52333 822-1111 limits assumed): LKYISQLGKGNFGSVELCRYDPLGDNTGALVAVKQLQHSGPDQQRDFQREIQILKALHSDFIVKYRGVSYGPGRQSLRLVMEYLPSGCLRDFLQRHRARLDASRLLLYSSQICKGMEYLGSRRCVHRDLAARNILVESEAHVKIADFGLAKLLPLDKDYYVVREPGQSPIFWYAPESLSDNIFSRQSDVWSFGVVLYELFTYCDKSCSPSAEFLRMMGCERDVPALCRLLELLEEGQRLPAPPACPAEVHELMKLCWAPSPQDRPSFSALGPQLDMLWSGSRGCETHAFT
# Experimental: as §1, §2
SMILES,IC50 [1],JAK1 IC50 potency class (JAK1),JAK2 IC50 potency class (JAK2),JAK3 IC50 potency class (JAK3),IC50 (JAK1; read-out: JAK1 IC50 % Inhibition)
"CS(=O)(=O)N1CCN(c2ccc(Nc3ncc(C(N)=O)c(NC4CC4)n3)cc2F)CC1 [Compound 41, 4-(cyclopropylamino)-2-((3-fluoro-4-(4-(methylsulfonyl)piperazin-1-yl)phenyl)amino)pyrimidine-5-carboxamide]",+++ (0.10 uM<IC50<0.01 uM),+++ (0.10 uM<IC50<0.01 uM),++++ (0.01 uM<IC50<0.001 uM),++++ (0.01 uM<IC50<0.001 uM),
"CS(=O)(=O)N1CC(c2ccc(Nc3ncc(C(N)=O)c(NC4CC4)n3)cc2)C1 [Compound 73, 4-(cyclopropylamino)-2-(4-(1-(methylsulfonyl)azetidin-3-yl)phenylamino)pyrimidine-5-carboxamide]",+++ (0.10 uM<IC50<0.01 uM),,,,
"COc1cc(Nc2ncc(C(N)=O)c(NC3CC3)n2)ccc1N1CCC(C(=O)N(C)C)CC1 [Compound 51, 4-(cyclopropylamino)-2-((4-(4-(dimethylcarbamoyl)piperidin-1-yl)-3-methoxyphenyl)amino)pyrimidine-5-carboxamide]",++ (1.0 uM<IC50<0.10 uM),+++ (0.10 uM<IC50<0.01 uM),++++ (0.01 uM<IC50<0.001 uM),++++ (0.01 uM<IC50<0.001 uM),
"CS(=O)(=O)N1CCN(c2ccc(Nc3ncc(C(N)=O)c(NC4CC4)n3)cc2Cl)CC1 [Compound 69, 2-((3-chloro-4-(4-(methylsulfonyl)piperazin-1-yl)phenyl)amino)-4-(cyclopropylamino)pyrimidine-5-carboxamide]",+++ (0.10 uM<IC50<0.01 uM),+++ (0.10 uM<IC50<0.01 uM),++++ (0.01 uM<IC50<0.001 uM),++++ (0.01 uM<IC50<0.001 uM),
"CC(=O)N1CC(c2ccc(Nc3ncc(C(N)=O)c(NC4CC4)n3)cc2)C1 [Compound 71, 2-(4-(1-acetylazetidin-3-yl)phenylamino)-4-(cyclopropylamino)pyrimidine-5-carboxamide]",+++ (0.10 uM<IC50<0.01 uM),,,,
"COC(=O)N1CCC(c2ccc(Nc3ncc(C(N)=O)c(NC4CC4)n3)cc2)CC1 [Compound 10, methyl 4-(4-((5-carbamoyl-4-(cyclopropylamino)pyrimidin-2-yl)amino)phenyl)piperidine-1-carboxylate]",+++ (0.10 uM<IC50<0.01 uM),+++ (0.10 uM<IC50<0.01 uM),+++ (0.10 uM<IC50<0.01 uM),++++ (0.01 uM<IC50<0.001 uM),
"CCS(=O)(=O)N1CCC(c2ccc(Nc3ncc(C(N)=O)c(NC4CC4)n3)cc2)CC1 [Compound 1, 4-(cyclopropylamino)-2-((4-(1-(ethylsulfonyl)piperidin-4-yl)phenyl)amino)pyrimidine-5-carboxamide]",+++ (0.10 uM<IC50<0.01 uM),+++ (0.10 uM<IC50<0.01 uM),++++ (0.01 uM<IC50<0.001 uM),++++ (0.01 uM<IC50<0.001 uM),
"CN(C)C(=O)C1CCN(c2ccc(Nc3ncc(C(N)=O)c(NC4CC4)n3)cc2F)CC1 [Compound 52, 4-(cyclopropylamino)-2-((4-(4-(dimethylcarbamoyl)piperidin-1-yl)-3-fluorophenyl)amino)pyrimidine-5-carboxamide]",+++ (0.10 uM<IC50<0.01 uM),+++ (0.10 uM<IC50<0.01 uM),++++ (0.01 uM<IC50<0.001 uM),++++ (0.01 uM<IC50<0.001 uM),
"NC(=O)c1cnc(Nc2ccc(C3CCN(c4ccccc4)CC3)cc2)nc1NC1CC1 [Compound 16, 4-(cyclopropylamino)-2-((4-(1-phenylpiperidin-4-yl)phenyl)amino)pyrimidine-5-carboxamide]",++ (1.0 uM<IC50<0.10 uM),,++ (1.0 uM<IC50<0.10 uM),+++ (0.10 uM<IC50<0.01 uM),> 1000 nM
"CS(=O)(=O)N1CCN(c2ccc(Nc3ncc(C(N)=O)c(NC4CC4)n3)cc2C#N)CC1 [Compound 47, 2-((3-cyano-4-(4-(methylsulfonyl)piperazin-1-yl)phenyl)amino)-4-(cyclopropylamino)pyrimidine-5-carboxamide]",++ (1.0 uM<IC50<0.10 uM),+++ (0.10 uM<IC50<0.01 uM),++++ (0.01 uM<IC50<0.001 uM),++++ (0.01 uM<IC50<0.001 uM),
"CN(C)C(=O)C1CN(c2ccc(Nc3ncc(C(N)=O)c(NC4CC4)n3)cc2)C1 [Compound 76, 4-(cyclopropylamino)-2-(4-(3-(dimethylcarbamoyl)azetidin-1-yl)phenylamino)pyrimidine-5-carboxamide]",++ (1.0 uM<IC50<0.10 uM),,,,
"CCS(=O)(=O)N1CC(c2ccc(Nc3ncc(C(N)=O)c(NC4CC4)n3)cc2)C1 [Compound 75, 4-(cyclopropylamino)-2-(4-(1-(ethylsulfonyl)azetidin-3-yl)phenylamino)pyrimidine-5-carboxamide]",+++ (0.10 uM<IC50<0.01 uM),,,,
"CN(C)S(=O)(=O)N1CC(c2ccc(Nc3ncc(C(N)=O)c(NC4CC4)n3)cc2)C1 [Compound 74, 4-(cyclopropylamino)-2-(4-(1-(N,N-dimethylsulfamoyl)azetidin-3-yl)phenylamino)pyrimidine-5-carboxamide]",+++ (0.10 uM<IC50<0.01 uM),,,,
"CN(C)C(=O)C1CN(c2ccc(Nc3ncc(C(N)=O)c(NC4CC4)n3)cc2F)C1 [Compound 77, 4-(cyclopropylamino)-2-(4-(3-(dimethylcarbamoyl)azetidin-1-yl)-3-fluorophenylamino)pyrimidine-5-carboxamide]",++ (1.0 uM<IC50<0.10 uM),,,,
"COCC(=O)N1CC(c2ccc(Nc3ncc(C(N)=O)c(NC4CC4)n3)cc2)C1 [Compound 72, 4-(cyclopropylamino)-2-(4-(1-(2-methoxyacetyl)azetidin-3-yl)phenylamino)pyrimidine-5-carboxamide]",+++ (0.10 uM<IC50<0.01 uM),,,,

# From patent US9676756B2 (PORTOLA PHARMACEUTICALS, INC., priority 2012, dated 2017)
